Results from ChEMBL document CHEMBL1156829 (Proc Natl Acad Sci U S A, 2008).

Assays:
[1] = test system: Plasmodium falciparum; test: NOVARTIS: Inhibition of Plasmodium falciparum 3D7 (drug-susceptible) proliferation in erythrocyte-based infection assay; assay type: functional, organism-based; settings: Plasmodium falciparum, 3D7
[2] = test system: Plasmodium falciparum; test: NOVARTIS: Inhibition of Plasmodium falciparum W2 (drug-resistant) proliferation in erythrocyte-based infection assay; assay type: functional, organism-based; settings: Plasmodium falciparum, W2; read-out: EC50
[3] = NOVARTIS: Cytotoxicity against human hepatocellular carcinoma cell line (Huh7); assay type: toxicity, cell-based, Huh-7; settings: Huh7 cells (hepatocellular carcinoma cell line)

SMILES | EC50 [1] [nM] | EC50 [2] [nM] | CC50 [3] [nM]
c1ccc(Cc2cc[n+](Cc3ccccc3)cc2)cc1 | 144 | 72.5 | > 100000
CC1=C(C(=O)Nc2ccccn2)C(c2ccc(O)cc2)n2ncnc2N1 (configuration not stated) | > 1250 | 561 | > 10000
Cc1ccc(O)c(Nc2c3c(c(C#N)c4nc5ccccc5n24)CCC3)c1 | 231 | 424 | > 10000
CC(C)N1CC[C@@H](N2CCN(c3cccc(C(F)(F)F)c3)CC2)[C@@H](CCC(=O)N(C)C2CCN(C)CC2)C1 | > 1040 | 285 | 5130
COc1ccc(CCNc2nc(NCCCN3CCCCC3C)ncc2C(=O)NCC(C)C)cc1OC (configuration not stated) | 1160 | > 706 | > 10000
CNC(=O)c1nn(C)c2c1CC(NCC1CCCCC1)CC2 (configuration not stated) | > 12500 | 2830 | > 100000
CCOC(=O)c1cnc2ccc(CC)cc2c1O | 716 | 525 | > 100000
C=CCc1cc([N+](=O)[O-])cc2c1OC1(C=C2)N(c2ccccc2)c2ccccc2C1(C)C (configuration not stated) | 396 | 885 | > 10000
Cc1cccc(C)c1NC(=O)CN1C(=O)C(C)(C)Oc2ccc(C(=O)NC(C)(C)C)cc21 | > 9240 | 2070 | > 100000
OC(CNc1cccc2ccccc12)Cn1c2ccccc2c2ccccc21 (configuration not stated) | 2590 | 883 | 14900
COc1ccc(CCNC(=O)CN(c2ccc(OC)c(OC)c2)S(=O)(=O)c2ccc(C)cc2)cc1OC | > 12500 | 1330 | > 100000
Clc1ccc(-c2c[n+](CCc3ccccc3)c3n2CCC3)cc1 | 380 | 299 | > 100000
O=C(C[n+]1cc(-c2ccccc2)n2c1CCC2)c1ccc(C2CCCCC2)cc1 | 312 | 393 | 17100
C=C[C@H]1CN2CC[C@H]1C[C@@H]2[C@@H](OC(=O)CC)c1ccnc2ccccc12 | 220 | 370 | > 10000
CCCCCN(C(=O)c1cccc(F)c1)C(CC)c1nc2ccccc2c(=O)n1-c1ccc(Cl)cc1C (configuration not stated) | 1460 | 480 | > 10000
Cc1ccn2c(NC(C)(C)CC(C)(C)C)c(-c3ccccc3OC(=O)c3ccc4c(c3)OCO4)nc2c1 | 831 | 24.1 | > 10000
Oc1ccc(-c2cnccn2)cc1CNC1CCN(Cc2ccccc2)CC1 | 385 | 380 | 82800

SMILES | EC50 [1] [nM] | EC50 [2] [nM] | CC50 [3] [nM]
O=C(Nc1ccc(-c2cc(-c3ccccc3)nc(-c3ccc(NC(=O)c4cccc([N+](=O)[O-])c4)cc3)n2)cc1)c1cccc([N+](=O)[O-])c1 | 1340 | 1240 | > 10000
CC(=O)N(C1=C(N2CCCCC2)C(=O)c2ccccc2C1=O)c1ccc(F)c(F)c1 | 238 | 94.7 | 47700
CCCCOc1nc(-c2ccc(OC)cc2)n(C(=O)c2ccccc2OC)n1 | 8970 | 717 | > 100000
CCc1cc(=O)n(C)c(SC(CC)C(=O)Nc2ccc(F)cc2)n1 (configuration not stated) | 484 | 383 | > 100000
COc1cc(C=CC(=O)Nc2ccc3nc(N4CCN(c5ncccn5)CC4)cc(C)c3c2)cc(OC)c1OC | 841 | 505 | 7420
Cc1ccc(-c2cn3c([n+]2-c2ccc(C)cc2)CCCCC3)cc1 | 999 | 459 | 10900
Cc1cc(N2CCN(C)CC2)nc2ccc(NC(=O)/C=C/c3ccc4c(c3)OCO4)cc12 | > 1250 | 292 | > 10000
CN(C)c1ccc(/C=C2/SC(=Nc3ccccc3)NC2=O)cc1 | 109 | 200 | > 10000
CCOC(=O)c1c(CNc2ccncc2)n(C)c2cc(Br)c(O)cc12 | 315 | 333 | > 10000
Cc1cccc(CSc2nnc(C(Cc3ccccc3)NC(=O)C3CCCCC3)n2-c2ccc(Cl)cc2Cl)c1 (configuration not stated) | 1240 | 1430 | > 10000
CCN1CCN(C(=O)CS(=O)(=O)Cc2nc(-c3cccc(OC)c3)oc2C)CC1 | > 1250 | > 712 | > 10000
Cc1c(Cl)cccc1N1C(=O)C2C3c4ccccc4C(c4ccccc43)C2C1=O (configuration not stated) | > 1610 | 686 | > 10000
CC1(C)C2C[C@@H](COC(=O)NC(=O)c3ccccc3)[C@]3(C)[C@H](C21)C3(Cl)Cl (some centres not stated) | 1140 | 951 | > 11200
c1ccc(-c2nc3cc4nc(-c5ccccc5)[nH]c4cc3[nH]2)cc1 | 285 | 1200 | > 100000
C=C[C@H]1CN2CC[C@H]1C[C@@H]2[C@@H](OC(C)=O)c1ccnc2ccccc12 | 666 | 157 | > 10000
CN(CCCNc1ccnc2cc(Cl)ccc12)C(=O)COCc1ccccc1 | 110 | < 13.5 | > 10000
O=C(CN1CCN(C(=O)c2ccco2)CC1)Nc1cc(C(F)(F)F)ccc1Cl | 4040 | > 10000 | > 100000
